Results taken from patent US20230097883A1, “ERGOTHIONEINE PET COMPOUNDS AND METHODS OF USE THEREOF” (VANDERBILT UNIVERSITY, priority 2021, published 2023).

Columns and labels:
Assay type in all cases: in vivo, mouse
[1] = tested on: GFAP-positive astrocytes; assay: GFAP immunohistochemistry of brain sections after ERGO treatment; conditions: ERGO-treated versus non-treated 5XFAD mice
Procedure: In this study, after the PET imaging, animals (non-treated 5XFAD (n=3) and ERGO-treated 5XFAD mice (n=5)) were perfused, and the brain sections were stained with antibodies against GFAP and IBA1 for neuroinflammatory markers astrocytes and microglia, respectively.
Brains embedded in OCT were cut into sagittal sections (10 μm) using a Tissue-Tek cryostat and mounted onto charged glass slides. Prior to staining, slides were washed with PBS (10 min); then, they were treated with blocking buffer (5% normal goat serum, 0.2% Triton X-100, 0.5% bovine albumin in PBS) for 1 h at room temperature. The treated sections were then incubated overnight at 4° C. with primary anti-GFAP antibody (1:100 dilution, Biolegend San Diego, Calif., USA). Slides were washed with PBS (3×) for 10 min each, the sections were subsequently incubated with secondary antibody goat anti-mouse Alexa Fluor 488 (1:200 dilution, Thermo Fisher Scientific, Carlsbad, Calif., USA) for 30 min at room temperature. The sections were then washed with PBS twice for 10 min and once for 30 min, and coverslipped with an antifade mounting medium (Vector Laboratories, Burlingame, Calif.) before observation under a fluorescence microscope.
Quantitative analysis of the PET imaging and IHC data was performed using imageJ software. […]

[2] = tested on: 5XFAD mice; assay: Conditioned fear task after ERGO treatment; conditions: ERGO-treated 5XFAD mice, novel context, 25 hours following training
Procedure: To address our primary question whether longitudinal consumption of ERGO as a potent antioxidant benefit the brain, three cohorts of animals (n=12 non-treated WT control, n=12 non-treated 5XFAD, and n=18 ERGO-treated 5XFAD) were used (FIG. 3.2A). Starting at the age of 8 weeks, the animals were treated with high doses of ERGO solution (25-50 mg/Kg) formulated in double distilled (dd) water via oral gavage three times a week over the course of eight weeks. To reduce bias in the behavioral experiments with regard to the potential stress during gavage treatment, non-treated animals underwent the identical gavage process with the vehicle, water, only. The efficacy of the therapy was evaluated by behavioral testing, followed by three different non-invasive PET imaging sessions to assess biomarkers related to AD pathology. In addition to assessing Abeta levels and glucose metabolism using the [^11C]PIB and [^18F]FDG probes, respectively; we also tested for the first time whether oxidative stress could be used as an indicator of response to therapy using the [^11C]ERGO PET radioligand. Finally, animals were euthanized, and the brains were collected for immunohistochemical analysis. […]
Mice were placed in a sound-attenuating chamber with a wire grid floor capable of transmitting an electric shock. All movements were monitored by cameras fixed to the inside of the doors. […]

[3] = tested on: oxidative stress; assay: [11C]ERGO PET imaging of oxidative stress after ERGO treatment; conditions: ERGO-treated versus non-treated 5XFAD mice, 20-min dynamic scan after IV injection
Procedure: To address our primary question whether longitudinal consumption of ERGO as a potent antioxidant benefit the brain, three cohorts of animals (n=12 non-treated WT control, n=12 non-treated 5XFAD, and n=18 ERGO-treated 5XFAD) were used (FIG. 3.2A). Starting at the age of 8 weeks, the animals were treated with high doses of ERGO solution (25-50 mg/Kg) formulated in double distilled (dd) water via oral gavage three times a week over the course of eight weeks. To reduce bias in the behavioral experiments with regard to the potential stress during gavage treatment, non-treated animals underwent the identical gavage process with the vehicle, water, only. The efficacy of the therapy was evaluated by behavioral testing, followed by three different non-invasive PET imaging sessions to assess biomarkers related to AD pathology. In addition to assessing Abeta levels and glucose metabolism using the [^11C]PIB and [^18F]FDG probes, respectively; we also tested for the first time whether oxidative stress could be used as an indicator of response to therapy using the [^11C]ERGO PET radioligand. Finally, animals were euthanized, and the brains were collected for immunohistochemical analysis.
Thus, in this study, [^11C]ERGO PET radioligand was used to assess the fluctuation in oxidative stress with respect to ERGO therapy. […]

C[N+](C)(C)[C@@H](Cc1c[nH]c(=S)[nH]1)C(=O)[O-] [ERGO, L-ergothioneine]
reduction of GFAP-positive astrocytes in the hippocampus [1]: ~50%
cue-based recall, freezing time while the cue was played [2]: ~50%
[11C]ERGO PET signal pertaining to oxidative stress in the brain [3]: very modest reduction in PET signal
